Assay results: ChEMBL document CHEMBL5223107 (Bioorg Med Chem Lett, 2022)
Active and inactive are the calls of the source.

Key:
[1] = target: T1, Androgen receptor (Homo sapiens) (UniProt P10275); test: Inhibition of androgen receptor in human LNCaP cells assessed as reduction in DHT-induced PSA mRNA expression level at 1 to 5 uM incubated for 24 hrs by qRT-PCR analysis; assay type: cell-based; conditions: dose 1-5 µM
T1 sequence (whole entry): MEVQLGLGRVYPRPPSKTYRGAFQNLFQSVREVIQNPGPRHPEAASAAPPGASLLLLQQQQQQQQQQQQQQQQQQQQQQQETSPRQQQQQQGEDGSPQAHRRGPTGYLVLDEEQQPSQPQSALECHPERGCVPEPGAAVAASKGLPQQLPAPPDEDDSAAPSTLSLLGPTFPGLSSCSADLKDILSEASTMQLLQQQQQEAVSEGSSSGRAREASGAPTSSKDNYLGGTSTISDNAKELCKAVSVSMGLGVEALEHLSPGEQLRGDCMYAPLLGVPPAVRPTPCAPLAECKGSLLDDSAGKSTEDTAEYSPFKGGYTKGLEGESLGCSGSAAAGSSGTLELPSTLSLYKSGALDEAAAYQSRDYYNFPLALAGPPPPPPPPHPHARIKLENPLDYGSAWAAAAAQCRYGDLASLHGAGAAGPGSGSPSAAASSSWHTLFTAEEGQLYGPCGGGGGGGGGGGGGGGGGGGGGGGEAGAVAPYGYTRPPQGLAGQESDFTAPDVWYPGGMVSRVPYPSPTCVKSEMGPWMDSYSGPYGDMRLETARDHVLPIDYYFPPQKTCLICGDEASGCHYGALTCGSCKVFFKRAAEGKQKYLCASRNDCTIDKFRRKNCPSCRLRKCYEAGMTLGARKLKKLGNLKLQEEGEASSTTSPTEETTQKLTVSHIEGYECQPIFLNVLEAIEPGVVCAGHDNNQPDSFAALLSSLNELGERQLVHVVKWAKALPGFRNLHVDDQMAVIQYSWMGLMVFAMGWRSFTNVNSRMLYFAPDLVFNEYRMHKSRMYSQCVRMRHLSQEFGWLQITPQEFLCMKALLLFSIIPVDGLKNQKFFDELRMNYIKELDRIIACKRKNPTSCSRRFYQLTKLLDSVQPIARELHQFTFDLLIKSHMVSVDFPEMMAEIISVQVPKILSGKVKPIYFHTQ

[2] = target: T1, Androgen receptor (Homo sapiens); test: Inhibition of androgen receptor in human PC-3 cells assessed as inhibition of AR transcription activity by dual-luciferase reporter assays; assay type: cell-based
[3] = target: T1, Androgen receptor (Homo sapiens); test: Inhibition of androgen receptor in human LNCaP cells assessed as reduction in DHT-induced PSA level at 1 to 5 uM incubated for 24 hrs by western blot analysis; assay type: cell-based; conditions: dose 1-5 µM
[4] = target: T1, Androgen receptor (Homo sapiens); test: Inhibition of androgen receptor in human LNCaP cells assessed as reduction in DHT-induced AR expression level at 1 to 5 uM incubated for 24 hrs by western blot analysis; assay type: cell-based; conditions: dose 1-5 µM
[5] = target: T1, Androgen receptor (Homo sapiens); test: Inhibition of androgen receptor in human 22Rv1 cells assessed as reduction in DHT-induced AR expression level at 1 to 5 uM incubated for 24 hrs by western blot analysis; assay type: cell-based; conditions: dose 1-5 µM
[6] = target: T1, Androgen receptor (Homo sapiens); test: Inhibition of androgen receptor in human 22Rv1 cells assessed as reduction in DHT-induced PSA level at 1 to 5 uM incubated for 24 hrs by western blot analysis; assay type: cell-based; conditions: dose 1-5 µM
[7] = target: T1, Androgen receptor (Homo sapiens); test: Inhibition of androgen receptor in human LNCaP cells assessed as reduction in DHT-induced AR mRNA expression level at 1 to 5 uM incubated for 24 hrs by qRT-PCR analysis; assay type: cell-based; conditions: dose 1-5 µM
[8] = target: T1, Androgen receptor (Homo sapiens); test: Inhibition of androgen receptor in human 22Rv1 cells assessed as reduction in DHT-induced AR mRNA expression level at 1 to 5 uM incubated for 24 hrs by qRT-PCR analysis; assay type: cell-based; conditions: dose 1-5 µM
[9] = target: T1, Androgen receptor (Homo sapiens); test: Inhibition of androgen receptor in human 22Rv1 cells assessed as reduction in DHT-induced PSA mRNA expression level at 1 to 5 uM incubated for 24 hrs by qRT-PCR analysis; assay type: cell-based; conditions: dose 1-5 µM
[10] = test system: LNCaP; test: Antiproliferative activity against human LNCaP cells assessed as cell growth inhibition incubated for 72 hrs by MTT assay; assay type: functional, cell-based
[11] = test system: PC-3; test: Antiproliferative activity against human PC-3 cells assessed as cell growth inhibition incubated for 72 hrs by MTT assay; assay type: functional, cell-based; conditions: PC-3, 72 h
[12] = test system: CWR22R; test: Antiproliferative activity against human 22Rv1 cells assessed as cell growth inhibition incubated for 72 hrs by MTT assay; assay type: functional, cell-based; conditions: 22Rv1, 72 h
[13] = target: T1, Androgen receptor (Homo sapiens); test: Inhibition of androgen receptor in human 22Rv1 cells assessed as reduction in BCL-2 expression level at 1 to 10 uM incubated for 24 hrs by western blot analysis; assay type: cell-based; conditions: dose 1-10 µM
[14] = target: T1, Androgen receptor (Homo sapiens); test: Inhibition of androgen receptor in human 22Rv1 cells assessed as reduction in […] expression level at 1 to 10 uM incubated for 24 hrs by western blot analysis; assay type: cell-based; conditions: dose 1-10 µM

CC1=CC2C(C(C)C)=C(O)C(=O)/C(=C\NCCS(=O)(=O)O)C2C(O)=C1c1c(C)cc2c(c1O)/C(=C/NCCS(=O)(=O)O)C(=O)C(O)=C2C(C)C (centres undefined)
3160 nM: IC50 [11]
active: inhibition [1] Dose-Dependent Effect | inhibition [2] Dose-Dependent Effect | inhibition [3] Dose-Dependent Effect | inhibition [4] Dose-Dependent Effect | inhibition [5] | inhibition [6] | inhibition [7] Dose-Dependent Effect | inhibition [8] Dose-Dependent Effect | inhibition [9] Dose-Dependent Effect | inhibition [13] | inhibition [14]
910 nM: IC50 [12]
350 nM: IC50 [10]
